This is an account of results in patent US20250017888A1, “COMPOUNDS FOR TREATING DISEASES ASSOCIATED WITH HYALURONAN OVERPRODUCTION” (THE ROYAL VETERINARY COLLEGE, priority 2021, published 2025).

What all share (type): cell-based
The test system of series [1] is bovine cartilage explants. The series can be described thus: Proteoglycan loss from interleukin activated bovine cartilage explants. Particulars: interleukin stimulated, 5 days. On the procedure: Cartilage explants were weighed (average wet weight: 20 mg) incubated in the absence and presence of IL-1 (2 ng/ml) and the inhibitors at various concentrations for 5 days. The tissues were extracted with 1.5 ml of a solution of 4 M guanidinium hydrochloride, 0.1 M ε-aminohexanoid acid, 5 mM benzamidine, 10 mM N-ethylmaleinimide, 0.5 mM phenylmethylsulfonyl fluoride for 3 days at 4° C. The solution was centrifuged for 5 min at 10.000 g and the proteoglycans were determined in the supernatant by the alcian blue method as described (Bjornsson, S., Anal. Biochem., 1993, 210, 282-291).
Bovine cartilage explants were incubated in the absence and presence of interleukin for stimulation of osteoarthritic reactions and the indicated concentrations of the xanthohumol-betaine (FIG. 6A), xanthohumol-prothiazole (FIG. 6B), quercetin-prothiazole (FIG. 6C), quercetin (FIG. 6D) and xanthohumol (FIG. 6E) for 5 days. The cartilage explants were weighed and the proteoglycan concentrations were determined in the cartilage explants (solid bars) and culture supernatants (open bars).

Series [2] has as its system hyaluronan export from chondrosarcoma cells. The series can be described thus: Inhibition of hyaluronan export / production in chondrosarcoma cells. Particulars: for inhibition of hyaluronan export: culture supernatant after 2 days, comparison with parent compound, particularly below 3 μM. On the procedure:
(§1) The hyaluronan synthase activity (Prehm, P. and Schumacher, U., Biochem. Pharmacol. 2004, 68, 1401-1410), the cytotoxicity of the drugs (O'Brien, J. et al., Eur. J. Biochem. 2000, 267, 5421-5426), proteoglycan synthesis rate, hyaluronan (Prehm, P. J. Rheumatol., 2005, 32, 690-696) and proteoglycan (Bjornsson, S. Anal. Biochem. 1993, 210, 282-291) were determined as described. The effect of the prenylflavonoids on the MRP5 export rate was measured with fluorescein diacetate as described (Schulz, T., Schumacher, U., and Prehm, P., J Biol. Chem., 2007, 282, 20999-21004). The determination of the IC50 values on the phosphodiesterase 5 was performed according to the instructions of BPS Bioscience. The culture of bovine chondrocytes in alginate beads and of explants of bovine cartilage was described previously (Deiters, B. and Prehm, P. Arthritis Res. Ther., 2008, 10, R8; Prehm, P. J. Rheumatol. 2005, 32, 690-696). Osteoarthritic reactions were induced in chondrocytes growing in alginate beads by incubation with medium containing 10 ng/ml of II-17 for 6 days, and in cartilage explants with 10 ng/ml of II-17 and 5 ng/ml of II-1α. The supernatants were withdrawn and stored at −20° C. for later analysis. The explants were weighed and extracted with 1 ml of 4 M guanidinium-HCl for 72 hours at 4° C. The proteoglycan concentrations were determined in the extracts.
Chondrosarcoma cells were plated on a 96 well microtiter plate and in the presence of increasing flavonoid concentrations. After 2 days the concentration of hyaluronan was determined in the culture supernatant.

The test system of series [3] is chondrosarcoma cells (SW1353). The series is described as follows: Alamar blue staining of chondrosarcoma. Particulars: Homo sapiens. On the procedure:
as §1
Chondrosarcoma cells (SW1353 from the American Type Culture Collection) were grown in Dulbecco's medium supplemented with streptomycin/penicillin (100 units of each/ml), 10% foetal calf serum or in serum free Quantum medium supplemented with streptomycin/penicillin (100 units of each/ml), kanamycin (100 units/ml).
A general note: Resazurin is reduced to fluorescent resorufin, in cell work by metabolically active cells.

Series [4] deals with chondrosarcoma cells. The series can be described thus: Uptake of flavonoids into chondrosarcoma cells by intracellular fluorescence. On the procedure:
Confluent monolayers of chondrosarcoma cells on 96 well microtiter plates were incubated with 100 μM solutions of flavonoids in serum-free Quantum medium. Changes in fluorescence were monitored from the bottom of the wells at excitation and emission wavelengths of 340 nm and 450 nm for xanthohumol and at 440 nm and 530 nm for quercetin, respectively.
Flavonoids are weakly fluorescent in aqueous buffer, but greatly enhance the fluorescence in the presence of proteins (Sengupta, B. and Sengupta, P. K., Biochem. Biophys. Res. Commun., 2002, 299, 400-403). This property was used to follow the uptake of quercetin and xanthohumol into chondrosarcoma cells.

The nature of series [5]: Alamar blue toxicity assay (FIG. 1). Particulars: below concentrations of 100 μM. As for the experimental part:
as §1
The toxicity was determined by the Alamar blue assay.

For series [6], the system named is chondrosarcoma cells. The series is described as follows: Inhibition of chondrosarcoma cell growth (Coulter counter). Particulars: cell numbers after 2 days. As for the experimental part:
Chondrosarcoma cells were plated on a 24 well microtiter plate and in the presence of increasing flavonoid concentrations. After 2 days the cells were trypsinized and the cell numbers were determined in a Coulter counter.

In series [7] the test system is fibroblasts. The series is described as follows: Alamar blue staining of fibroblasts. The following applies: Fibroblast. On the procedure:
as §1

The structures appear in SMILES notation. Like-named read-outs stand apart in the source and are kept apart here.

For the compound `COc1cc(O)c(CC=C(C)C)c(O)c1C(=O)/C=C/c1ccc(OC(=O)CN(C=O)/C=C\SC(C)=O)cc1` [Xanthohumol-prothiazole, 4-((E)-3-(2,4-dihydroxy-6-methoxy-3-(3-methylbut-2-en-1-yl)phenyl)-3-oxoprop-1-en-1-yl)phenyl 2-(N-((Z)-2-(acetylthio)vinyl)formamido)acetate], in series [1], the “inhibition of proteoglycan loss (protective effect)” value is listed as “similarly effective”. The IC50 in series [2] came out at 20 µM; in series [3], 69 µM; in series [7], 74 µM. Besides, the “inhibition of hyaluronan export” value in series [2] is “more effective than their parent compound”. Further, the “uptake into chondrosarcoma cells (intracellular fluorescence)” value (shortened to “uptake into chondrosarcoma cells”) in series [4] is recorded as “taken up in a concentration dependent manner”. In addition, the “toxicity in Alamar blue assay” value in series [5] is “not toxic”. Further, the “inhibition of chondrosarcoma cell growth” value in series [6] is “more effective at submicromolar concentrations”.

Take `CC(=O)S/C=C\N(C=O)CC(=O)Oc1ccc(-c2oc3cc(O)cc(O)c3c(=O)c2O)cc1O` [Quercetin-prothiazole, (Z)-2-hydroxy-4-(3,5,7-trihydroxy-4-oxo-4H-chromen-2-yl)phenyl 2-(N-(2-(acetylthio)vinyl)formamido)acetate]: in series [1], the “inhibition of proteoglycan loss (protective effect)” value is given as “similarly effective”. Moreover, the IC50 in series [2] amounted to 8 µM; in series [3], 61 µM; in series [7] it was 66 µM. Further, the “inhibition of hyaluronan export” value in series [2] was “more effective than their parent compound”. The “uptake into chondrosarcoma cells” value in series [4] was “taken up in a concentration dependent manner”. Moreover, the “toxicity in Alamar blue assay” value in series [5] is recorded as “not toxic”. Further, in series [6], the “inhibition of chondrosarcoma cell growth” value is reported as “more effective at submicromolar concentrations”.

On to `O=c1c(O)c(-c2ccc(O)c(O)c2)oc2cc(O)cc(O)c12` [Quercetin, reference compound], for which the values for the IC50 in series [2] and in series [3] were 16 µM and 70 µM, respectively. Moreover, the “uptake into chondrosarcoma cells” value in series [4] (concentration dependence, FIG. 2A) is listed as “did not accumulate inside the cells”. The “toxicity in Alamar blue assay” value in series [5] is “not toxic”.

As usually defined, the IC50 is the midpoint of a concentration-inhibition curve. Read a high IC50 as weaker potency in that assay.
